For this experiment, the system named is P388 leukemia ip, CD2F1 mice, survival T/C. As to the kind of experiment: NCI In Vivo Anticancer Drug Screen. Data for tumor model P388 Leukemia (intraperitoneal) in CD2F1 (CDF1) mice. As to conditions: endpoint: median survival time, higher = longer survival. The procedure, abridged: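 Mice carrying the transplanted tumor received test compound or vehicle. Survival was recorded in each group, and the value is the treated-group measurement divided by that of the vehicle-treated control group.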

[1] abbreviates: dose: 100.0 mg/kg/injection, schedule: Q04DX003 (ip), vehicle: saline.
The mark [2] stands for this setting: dose: 200.0 mg/kg/injection, schedule: Q04DX003 (ip), vehicle: saline.
Where [3] appears, read: dose: 400.0 mg/kg/injection, schedule: Q04DX003 (ip), vehicle: saline.
Where [4] appears, read: dose: 50.0 mg/kg/injection, schedule: Q01DX009 (ip), vehicle: suspension in saline.
The mark [5] stands for this setting: dose: 100.0 mg/kg/injection, schedule: Q01DX009 (ip), vehicle: suspension in saline.
Setting [6] is: dose: 200.0 mg/kg/injection, schedule: Q01DX009 (ip), vehicle: suspension in saline.
Where [7] appears, read: dose: 100.0 mg/kg/injection, schedule: Q04DX002 (ip), vehicle: saline with Tween-80.
Setting [8] is: dose: 200.0 mg/kg/injection, schedule: Q04DX002 (ip), vehicle: saline with Tween-80.
Setting [9] is: dose: 12.5 mg/kg/injection, schedule: Q01DX009 (ip), vehicle: saline with Tween-80.
[10] abbreviates: dose: 25.0 mg/kg/injection, schedule: Q01DX009 (ip), vehicle: saline with Tween-80.
[11] abbreviates: dose: 50.0 mg/kg/injection, schedule: Q01DX009 (ip), vehicle: saline with Tween-80.
Setting [12] is: dose: 100.0 mg/kg/injection, schedule: Q01DX009 (ip), vehicle: saline with Tween-80.
Where [13] appears, read: dose: 50.0 mg/kg/injection, schedule: Q01DX005 (ip), vehicle: Klucel (hydroxypropylcellulose) (HPC).
Setting [14] is: dose: 100.0 mg/kg/injection, schedule: Q01DX005 (ip), vehicle: Klucel (hydroxypropylcellulose) (HPC).
The mark [15] stands for this setting: dose: 200.0 mg/kg/injection, schedule: Q01DX005 (ip), vehicle: Klucel (hydroxypropylcellulose) (HPC).
[16] abbreviates: dose: 50.0 mg/kg/injection, schedule: Q01DX005 (ip), vehicle: saline with Tween-80.
[17] abbreviates: dose: 100.0 mg/kg/injection, schedule: Q01DX005 (ip), vehicle: saline with Tween-80.
[18] abbreviates: dose: 50.0 mg/kg/injection, schedule: Q01DX009 (ip), vehicle: Klucel (hydroxypropylcellulose) (HPC).
[19] abbreviates: dose: 100.0 mg/kg/injection, schedule: Q01DX009 (ip), vehicle: Klucel (hydroxypropylcellulose) (HPC).
[20] abbreviates: dose: 200.0 mg/kg/injection, schedule: Q01DX009 (ip), vehicle: Klucel (hydroxypropylcellulose) (HPC).
Setting [21] is: dose: 200.0 mg/kg/injection, schedule: Q01DX005 (ip), vehicle: saline with Tween-80.
Where [22] appears, read: dose: 100.0 mg/kg/injection, schedule: Q04DX003 (ip), vehicle: saline with Tween-80.

Values joined by “and” are separate entries in the source; they are usually repeats but may differ in a detail not shown here. Identical values can stand only once. Inconclusive results and toxic doses are left out.

These results are taken from PubChem BioAssay AID330 (DTP/NCI, 2004).

Turning to `CC1CCOC(C)O1` (stereo unspecified), the T/C was 100 % of control under setting [1], 104 % of control under setting [2] and 101 % of control under setting [3].
The matching figures for `COc1ccc(C(=O)NC(C(N)=O)C(N)=O)cc1`: 99 % of control, 99 % of control and 97 % of control.
On to `COc1cc2oc(=O)cc(C)c2cc1[N+](=O)[O-]`, for which the T/C was 98 % of control under setting [4], 95 % of control under setting [5] and 96 % of control under setting [6].
As for `CC(=O)/C=N/OC(=O)c1ccccc1`, the T/C under setting [7] is 104 % of control and the T/C under setting [8] is 99 % of control.
On to `CC(C)(C)OC(=O)NC(CCCCNC(=O)OCc1ccccc1)C(=O)O` (stereo unspecified), for which the T/C reads like this: (dose: 50.0 mg/kg/injection, schedule: Q01DX005 (ip), vehicle: distilled water + Tween-80 + alcohol) 92 % of control; (dose: 50.0 mg/kg/injection, schedule: Q01DX005 (ip), vehicle: saline) 106 % of control; (dose: 100.0 mg/kg/injection, schedule: Q01DX005 (ip), vehicle: distilled water + Tween-80 + alcohol) 92 % of control; (dose: 100.0 mg/kg/injection, schedule: Q01DX005 (ip), vehicle: saline) 100 % of control; (dose: 200.0 mg/kg/injection, schedule: Q01DX005 (ip), vehicle: saline) 103 % of control.
Regarding `Fc1cccc(NC(=S)SCc2ccc(Cl)c(Cl)c2)c1`, the T/C by setting is: under setting [4], 99 % of control; under setting [5], 93 % of control; under setting [6], 109 % of control.
On to `CC(=O)OC1C(O)C(C)OC(OC(=O)C2CCC3C(C2)OC2(CC(OC(=O)/C=C/c4ccccc4)C(C)CO2)C32CO2)C1OC1OC(C)C(O)C(O)C1O` (stereo unspecified), for which the T/C by setting is: (dose: 2.0 mg/kg/injection, schedule: Q01DX005 (ip), vehicle: saline + alcohol) 100 % of control and 118 % of control; (dose: 4.0 mg/kg/injection, schedule: Q01DX005 (ip), vehicle: saline + alcohol) 119 % of control; (dose: 16.0 mg/kg/injection, schedule: Q01DX005 (ip), vehicle: saline + alcohol) 151 % of control; (dose: 32.0 mg/kg/injection, schedule: Q01DX005 (ip), vehicle: saline + alcohol) 154 % of control; (dose: 64.0 mg/kg/injection, schedule: Q01DX005 (ip), vehicle: saline + alcohol) 163 % of control.
As for `Nc1nccc(Cl)n1`, the T/C reads like this: (dose: 6.25 mg/kg/injection, schedule: Q01DX009 (ip), vehicle: saline with Tween-80) 98 % of control; under setting [9], 100 % of control; under setting [10], 100 % of control; under setting [11], 100 % of control.
For `Cc1cnc2c(N)cc(C)c(C)c2c1`, the T/C reads like this: under setting [9], 94 % of control; under setting [10], 100 % of control; under setting [11], 99 % of control and 100 % of control; under setting [12], 86 % of control.
Consider `c1ncc2[nH]cnc2n1`, for which the T/C runs as follows: (dose: 100.0 mg/kg/injection, schedule: Q01DX009 (ip), vehicle: saline sonified) 100 % of control; under setting [1], 104 % of control; (dose: 200.0 mg/kg/injection, schedule: Q01DX009 (ip), vehicle: saline sonified) 104 % of control; under setting [2], 104 % of control; (dose: 400.0 mg/kg/injection, schedule: Q01DX009 (ip), vehicle: saline sonified) 100 % of control; under setting [3], 104 % of control.
Take `N=C(N)Sc1cc(Br)c[n+]([O-])c1`: the T/C reads like this: under setting [13], 104 % of control; under setting [14], 102 % of control; under setting [15], 100 % of control.
Take `Cc1ccc(Cl)c2ccccc12`: the T/C by setting is: under setting [11], 113 % of control; under setting [12], 108 % of control.
As to `CC(C)C(O)(C(=O)OCC1=CC[N+]2(C)CCC(O)C12)C(C)O` (stereo unspecified), the T/C is 103 % of control (dose: 25.0 mg/kg/injection, schedule: Q01DX005 (ip), vehicle: water); 108 % of control (dose: 50.0 mg/kg/injection, schedule: Q01DX005 (ip), vehicle: water); 103 % of control (dose: 100.0 mg/kg/injection, schedule: Q01DX005 (ip), vehicle: water); 100 % of control (dose: 200.0 mg/kg/injection, schedule: Q01DX005 (ip), vehicle: water).
Turning to `O=C1CN(c2ccc(Cl)cc2)C(=O)CN1/N=C/c1ccc(O)c(O)c1`, the T/C was 99 % of control under setting [16] and 93 % of control under setting [17].
As for `Cc1ccc(S(=O)(=O)NN=C(c2ccccc2)c2ccccc2)cc1`, the T/C (dose: 12.5 mg/kg/injection, schedule: Q01DX009 (ip), vehicle: Klucel (hydroxypropylcellulose) (HPC)) was 98 % of control; the T/C (dose: 25.0 mg/kg/injection, schedule: Q01DX009 (ip), vehicle: Klucel (hydroxypropylcellulose) (HPC)) was 93 % of control; the T/C under setting [18] is 87 % of control; the T/C under setting [19] is 88 % of control; the T/C under setting [20] was 86 % of control.
Take `CCN(CC)c1ccc(/C=N/Nc2cc(C)nc3ccc(C4CCCCC4)cc23)cc1`: the T/C is, setting by setting: under setting [16], 90 % of control; under setting [17], 100 % of control; under setting [21], 118 % of control.
In the case of `O=[N+]([O-])c1ccc(CSSCc2ccc([N+](=O)[O-])cc2)cc1`, the T/C was 98 % of control under setting [13], 100 % of control under setting [14] and 105 % of control under setting [15].
Regarding `COc1ccc(C(c2cc(C(C)(C)C)c(O)c(C(C)(C)C)c2)N2CCCCC2)cc1` (stereo unspecified), the T/C is 102 % of control under setting [16], 109 % of control under setting [17] and 112 % of control under setting [21].
Turning to `c1cc2c3c(c1)nc(CCc1nc4cccc5c4n1CCC5)n3CCC2`, the T/C runs as follows: (dose: 25.0 mg/kg/injection, schedule: Q04DX003 (ip), vehicle: saline with Tween-80) 109 % of control; (dose: 50.0 mg/kg/injection, schedule: Q04DX003 (ip), vehicle: saline with Tween-80) 86 % of control; under setting [22], 86 % of control.
As to `CN(C)CCCN1C=CC(=C2C(=O)c3ccccc3C2=O)C=C1`, the T/C is, setting by setting: under setting [18], 88 % of control; under setting [19], 86 % of control; under setting [20], 97 % of control.
With `COC(=O)OC(C#N)c1cccc([N+](=O)[O-])c1` (stereo unspecified), the T/C runs as follows: (dose: 25.0 mg/kg/injection, schedule: Q01DX009 (ip), vehicle: suspension in saline) 101 % of control; under setting [4], 98 % of control; (dose: 100.0 mg/kg/injection, schedule: Q01DX009 (ip), vehicle: saline) 94 % of control; under setting [5], 104 % of control.
Regarding `CN/N=C/c1ccc(O)c(OC)c1`, the T/C under setting [22] was 100 % of control; the T/C (dose: 200.0 mg/kg/injection, schedule: Q04DX003 (ip), vehicle: saline with Tween-80) was 100 % of control; the T/C (dose: 400.0 mg/kg/injection, schedule: Q04DX003 (ip), vehicle: saline with Tween-80) is 100 % of control.
For `O=c1cc(-c2ccc(OCc3ccccc3)cc2)oc2ccccc12`, the T/C by setting is: under setting [16], 92 % of control; under setting [17], 87 % of control; under setting [21], 86 % of control.
For `Nc1nc(=S)c2n[nH]nc2[nH]1`, the T/C is, setting by setting: (dose: 11.0 mg/kg/injection, schedule: Q01DX009 (ip), vehicle: saline with Tween-80) 101 % of control and 105 % of control; under setting [9], 104 % of control; (dose: 16.5 mg/kg/injection, schedule: Q01DX009 (ip), vehicle: saline with Tween-80) 98 % of control and 103 % of control; under setting [10], 103 % of control and 91 % of control; (dose: 37.5 mg/kg/injection, schedule: Q01DX009 (ip), vehicle: saline with Tween-80) 98 % of control and 101 % of control.
For `CC1=C(C)C(=O)C(C(C)(C)CC(=O)Sc2ncnc3nc[nH]c23)=C(C)C1=O`, the T/C is 97 % of control under setting [7] and 99 % of control under setting [8].
